How the values were obtained:
Type in all cases: cell-based, human
SF-268 = test: NCI screening panel, SF-268 (CNS Cancer)
Protocol: (§1) Representative compounds of Formula I were screened using the National Cancer Institute (NCI) screening panel, which consists of a panel of human tumor cell lines, representing leukemia, melanoma, and cancers of the lung, colon, ovary, breast, prostate and renal system.
(§2) After 24 h, two plates of each cell line are fixed in situ with TCA, to represent a measurement of the cell population for each cell line at the time of drug addition (Tz). Experimental drugs are solubilised in dimethyl sulfoxide at 400-fold the desired final maximum test concentration and stored frozen prior to use. At the time of drug addition, an aliquot of frozen concentrate is thawed and diluted to twice the desired final maximum test concentration with complete medium containing 50 μg/mL gentamicin. Additional four, 10-fold or ½ log serial dilutions are made to provide a total of five drug concentrations plus control. Aliquots of 100 μl of these different drug dilutions are added to the appropriate microtiter wells already containing 100 μl of medium, resulting in the required final drug concentrations.
(§3) Following drug addition, the plates are incubated for an additional 48 h at 37° C., 5% CO2, 95% air, and 100% relative humidity. For adherent cells, the assay is terminated by the addition of cold TCA (trichloroacetic acid). Cells are fixed in situ by the gentle addition of 50 μl of cold 50% (w/v) TCA (final concentration, 10% TCA) and incubated for 60 minutes at 4° C. The supernatant is discarded, and the plates are washed five times with tap water and air dried. Sulforhodamine B (SRB) solution (100 μl) at 0.4% (w/v) in 1% acetic acid is added to each well, and plates are incubated for 10 minutes at room temperature. After staining, unbound dye is removed by washing five times with 1% acetic acid and the plates are air dried. Bound stain is subsequently solubilised with 10 mM trizma base, and the absorbance is read on an automated plate reader at a wavelength of 515 nm. For suspension cells, the methodology is the same except that the assay is terminated by fixing settled cells at the bottom of the wells by gently adding 50 μl of 80% TCA (final concentration, 16% TCA). Using the seven absorbance measurements [time zero, (Tz), control growth, (C), and test growth in the presence of drug at the five concentration levels (Ti)], the percentage growth is calculated at each of the drug concentrations levels. Percentage growth inhibition is calculated as: [(Ti−Tz)/(C−Tz)]×100 for concentrations for which Ti>/=Tz and [(Ti−Tz)/Tz]×100 for concentrations for which Ti<Tz.
(§4) Three dose response parameters are calculated for each experimental agent. Growth inhibition of 50% (GI50) is calculated from [(Ti−Tz)/(C−Tz)]×100=50, which is the drug concentration resulting in a 50% reduction in the net protein increase (as measured by SRB staining) in control cells during the drug incubation. The drug concentration resulting in total growth inhibition (TGI) is calculated from Ti=Tz. The LC50 (concentration of drug resulting in a 50% reduction in the measured protein at the end of the drug treatment as compared to that at the beginning) indicating a net loss of cells following treatment is calculated from [(Ti−Tz)/Tz]×100=−50. Values are calculated for each of these three parameters if the level of activity is reached. However, if the effect is not reached or is exceeded, the value for that parameter is expressed as greater or less than the maximum or minimum concentration tested.

UACC-257 = test: NCI screening panel, UACC-257 (Melanoma)
Protocol: as §1, §2, §3, §4

NCI-H522 = test: NCI screening panel, NCI-H522 (Non-Small Cell Lung Cancer)
Protocol: as §1, §2, §3, §4

HCT-15 = test: NCI screening panel, HCT-15 (Colon Cancer)
Protocol: as §1, §2, §3, §4

HCC-2998 = test: NCI screening panel, HCC-2998 (Colon Cancer)
Protocol: as §1, §2, §3, §4

SF-539 = test: NCI screening panel, SF-539 (CNS Cancer)
Protocol: as §1, §2, §3, §4

A549/ATCC = test: NCI screening panel, A549/ATCC (Non-Small Cell Lung Cancer)
Protocol: as §1, §2, §3, §4

RPMI-8226 = test: NCI screening panel, RPMI-8226 (Leukemia)
Protocol: as §1, §2, §3, §4

LOX IMVI = test: NCI screening panel, LOX IMVI (Melanoma)
Protocol: as §1, §2, §3, §4

M14 = test: NCI screening panel, M14 (Melanoma)
Protocol: as §1, §2, §3, §4

SK-OV-3 = test: NCI screening panel, SK-OV-3 (Ovarian Cancer)
Protocol: as §1, §2, §3, §4

SR = test: NCI screening panel, SR (Leukemia)
Protocol: as §1, §2, §3, §4

BT-549 = test: NCI screening panel, BT-549 (Breast Cancer)
Protocol: as §1, §2, §3, §4

NCI-H23 = test: NCI screening panel, NCI-H23 (Non-Small Cell Lung Cancer)
Protocol: as §1, §2, §3, §4

HCT-116 = test: NCI screening panel, HCT-116 (Colon Cancer)
Protocol: as §1, §2, §3, §4

SK-MEL-2 = test: NCI screening panel, SK-MEL-2 (Melanoma)
Protocol: as §1, §2, §3, §4

SN12C = test: NCI screening panel, SN12C (Renal Cancer)
Protocol: as §1, §2, §3, §4

UACC-62 = test: NCI screening panel, UACC-62 (Melanoma)
Protocol: as §1, §2, §3, §4

U251 = test: NCI screening panel, U251 (CNS Cancer)
Protocol: as §1, §2, §3, §4

## CC(C)C[C@H](NC(=O)[C@H](COC(F)F)NC(=O)[C@H](COC(F)F)NC(=O)[C@H](CCc1ccccc1)NC(=O)CN1CCOCC1)C(=O)[C@@]1(C)CO1 [Example 7, (2S)-N-[(1S)-1-(difluoromethoxymethyl)-2-[[(1S)-1-(difluoromethoxymethyl)-2-[[(1S)-3-methyl-1-[(2R)-2-methyloxirane-2-carbo-nyl]butyl]amino]-2-oxo-ethyl]amino]-2-oxo-ethyl]-2-[(2-morpholinoacetyl)amino]-4-phenyl-butanamide]
SF-268
  Log10GI50: −7.73
  Log10LC50: >−4.00
  Log10TGI50: −7.21
UACC-257
  Log10GI50: −6.80
  Log10LC50: >−4.00
  Log10TGI50: −6.03
NCI-H522
  Log10GI50: −7.88
  Log10LC50: −4.62
  Log10TGI50: −7.20
HCT-15
  Log10GI50: −5.89
  Log10LC50: >−4.00
  Log10TGI50: >−4.00
HCC-2998
  Log10GI50: −7.60
  Log10LC50: −6.55
  Log10TGI50: −7.21
SF-539
  Log10GI50: −7.74
  Log10LC50: −4.26
  Log10TGI50: −7.20
A549/ATCC
  Log10GI50: −7.43
  Log10LC50: >−4.00
  Log10TGI50: >−4.00
RPMI-8226
  Log10GI50: −7.56
  Log10LC50: >−4.00
  Log10TGI50: −7.04
LOX IMVI
  Log10GI50: −7.99
  Log10LC50: −7.13
  Log10TGI50: −7.56
M14
  Log10GI50: −7.11
  Log10LC50: >−4.00
  Log10TGI50: −5.70
SK-OV-3
  Log10GI50: −6.94
  Log10LC50: >−4.00
  Log10TGI50: −5.46
SR
  Log10GI50: −7.64
  Log10LC50: >−4.00
  Log10TGI50: >−4.00
BT-549
  Log10GI50: −7.68
  Log10LC50: >−4.00
  Log10TGI50: −7.07
NCI-H23
  Log10GI50: −7.57
  Log10LC50: >−4.00
  Log10TGI50: −5.58
HCT-116
  Log10GI50: <−8.00
  Log10LC50: >−4.00
  Log10TGI50: −6.78
SK-MEL-2
  Log10GI50: −7.54
  Log10LC50: >−4.00
  Log10TGI50: −6.86
SN12C
  Log10GI50: −7.46
  Log10LC50: −5.85
  Log10TGI50: −6.77
UACC-62
  Log10GI50: −7.49
  Log10LC50: −4.37
  Log10TGI50: −6.73
U251
  Log10GI50: −7.63
  Log10LC50: −5.04
  Log10TGI50: −6.79

## CC(C)C[C@H](NC(=O)[C@H](COC(F)F)NC(=O)CN1CCOCC1)C(=O)N[C@@H](Cc1ccccc1)C(=O)N[C@@H](CC(C)C)C(=O)[C@@]1(C)CO1 [Example 2, (2S)-N-[(1S)-1-benzyl-2-[[(1S)-3-methyl-1-[(2R)-2-methyloxirane-2-carbonyl]butyl]-amino]-2-oxo-ethyl]-2-[[(2S)-3-(difluoromethoxy)-2-[(2-morpholinoacetyl)amino]propanoyl]amino]-4-methyl-pentanamide]
SF-268
  Log10GI50: −7.81
  Log10LC50: >−4.00
  Log10TGI50: −7.20
UACC-257
  Log10GI50: −7.23
  Log10LC50: −4.58
  Log10TGI50: −6.43
NCI-H522
  Log10GI50: <−8.00
  Log10TGI50: −7.43
HCT-15
  Log10GI50: −6.40
  Log10LC50: >−4.00
  Log10TGI50: −4.66
HCC-2998
  Log10GI50: −7.77
  Log10LC50: −7.15
  Log10TGI50: −7.46
SF-539
  Log10GI50: −7.87
  Log10LC50: −7.06
  Log10TGI50: −7.46
A549/ATCC
  Log10GI50: −7.52
  Log10LC50: >−4.00
  Log10TGI50: −5.93
RPMI-8226
  Log10GI50: −7.98
  Log10LC50: >−4.00
  Log10TGI50: −7.24
LOX IMVI
  Log10GI50: <−8.00
  Log10LC50: −7.21
  Log10TGI50: −7.62
M14
  Log10GI50: −7.39
  Log10LC50: >−4.00
  Log10TGI50: −6.26
SK-OV-3
  Log10GI50: −7.15
  Log10LC50: >−4.00
  Log10TGI50: −6.21
SR
  Log10GI50: <−8.00
  Log10LC50: >−4.00
  Log10TGI50: >−4.00
BT-549
  Log10GI50: <−8.00
  Log10LC50: −6.84
  Log10TGI50: −7.48
NCI-H23
  Log10GI50: −7.73
  Log10LC50: >−4.00
  Log10TGI50: −6.67
HCT-116
  Log10GI50: <-8.00
  Log10LC50: −6.97
  Log10TGI50: −7.72
SK-MEL-2
  Log10GI50: −7.66
  Log10LC50: >−4.00
  Log10TGI50: −7.06
SN12C
  Log10GI50: −7.40
  Log10LC50: −4.92
  Log10TGI50: −6.64
UACC-62
  Log10GI50: −7.59
  Log10LC50: >−4.00
  Log10TGI50: −6.82
U251
  Log10GI50: −7.72
  Log10LC50: −5.63
  Log10TGI50: −6.87

— patent publication US20150218212A1, “FLUORINATED EPOXYKETONE-BASED TETRAPEPTIDE COMPOUNDS AND USES THEREOF AS PROTEASOME INHIBITORS” (FLUORINOV PHARMA INC., priority 2012, published 2015)
